From US9745320B2, “Five-and-six-membered heterocyclic compound, and preparation method, pharmaceutical composition and use thereof” (SHANGHAI CHEMEXPLORER CO., LTD., priority 2013, dated 2017)

Columns and labels:
Format in all cases: biochemical
[1] = biological target: JAK1 (Homo sapiens, UniProt P23458); experiment: JAK 1 enzymatic inhibitory activity IC50 assay (Caliper conversion rate); settings: Km ATP, 28° C., 1 hour
Method: (§1) Biological effect: intracytoplasmic JAK 1,2,3 enzymatic inhibitory activity IC50 assay
(§2) JAK1 buffer solution: 25 mM HEPES, pH 7.5, 0.01% Brij-35, 0.01 M Triton. JAK2,3 buffer solution: 50 mM HEPES, pH 7.5, 0.0015% Brij-35.
(§3) 2. Compound was formulated in 100% DMSO in a concentration gradient, deposited to a 384-well plate with a final concentration of 2% of DMSO.
(§4) 3. JAK2,3 enzymes were diluted to having an optimum concentration with the following buffer: 50 mM HEPES, pH 7.5, 0.0015% Brij-35, 2 mM DTT. JAK1 enzyme was diluted to having an optimum concentration with the following buffer: 25 mM HEPES, pH 7.5, 0.01% Brij-35, 2 mM DTT, 0.01M Triton. Then they were transferred to a 384-well plate and incubated with the compound for a certain time.
(§5) 4. JAK2,3 substrate was diluted to having an optimum concentration with the following buffer: 50 mM HEPES, pH 7.5, 0.0015% Brij-35, 10 mM MgCl2, Km adenosine triphosphate. JAK1 substrate was diluted to having an optimum concentration with the following buffer: 25 mM HEPES, pH 7.5, 0.01% Brij-35, 10 mM MgCl2, 0.01 M Triton. Km adenosine triphosphate was added into 384-well plates to initiate reactions, and the reaction were carried out at 28° C. for 1 hour.
(§6) 5. Read the conversion rate by Caliper Reader, and the inhibition rate are calculated according to the average of two tests.

[2] = biological target: JAK2 (Homo sapiens, UniProt O60674); experiment: JAK 2 enzymatic inhibitory activity IC50 assay (Caliper conversion rate); settings: Km ATP, 28° C., 1 hour
Method: as §1, §2, §3, §4, §5, §6

[3] = biological target: T1, JAK3 (Homo sapiens, UniProt P52333); experiment: JAK 3 enzymatic inhibitory activity IC50 assay (Caliper conversion rate); settings: Km ATP, 28° C., 1 hour; read-out: JAK 3 enzymatic inhibitory activity IC50
T1 sequence (P52333 1-1124): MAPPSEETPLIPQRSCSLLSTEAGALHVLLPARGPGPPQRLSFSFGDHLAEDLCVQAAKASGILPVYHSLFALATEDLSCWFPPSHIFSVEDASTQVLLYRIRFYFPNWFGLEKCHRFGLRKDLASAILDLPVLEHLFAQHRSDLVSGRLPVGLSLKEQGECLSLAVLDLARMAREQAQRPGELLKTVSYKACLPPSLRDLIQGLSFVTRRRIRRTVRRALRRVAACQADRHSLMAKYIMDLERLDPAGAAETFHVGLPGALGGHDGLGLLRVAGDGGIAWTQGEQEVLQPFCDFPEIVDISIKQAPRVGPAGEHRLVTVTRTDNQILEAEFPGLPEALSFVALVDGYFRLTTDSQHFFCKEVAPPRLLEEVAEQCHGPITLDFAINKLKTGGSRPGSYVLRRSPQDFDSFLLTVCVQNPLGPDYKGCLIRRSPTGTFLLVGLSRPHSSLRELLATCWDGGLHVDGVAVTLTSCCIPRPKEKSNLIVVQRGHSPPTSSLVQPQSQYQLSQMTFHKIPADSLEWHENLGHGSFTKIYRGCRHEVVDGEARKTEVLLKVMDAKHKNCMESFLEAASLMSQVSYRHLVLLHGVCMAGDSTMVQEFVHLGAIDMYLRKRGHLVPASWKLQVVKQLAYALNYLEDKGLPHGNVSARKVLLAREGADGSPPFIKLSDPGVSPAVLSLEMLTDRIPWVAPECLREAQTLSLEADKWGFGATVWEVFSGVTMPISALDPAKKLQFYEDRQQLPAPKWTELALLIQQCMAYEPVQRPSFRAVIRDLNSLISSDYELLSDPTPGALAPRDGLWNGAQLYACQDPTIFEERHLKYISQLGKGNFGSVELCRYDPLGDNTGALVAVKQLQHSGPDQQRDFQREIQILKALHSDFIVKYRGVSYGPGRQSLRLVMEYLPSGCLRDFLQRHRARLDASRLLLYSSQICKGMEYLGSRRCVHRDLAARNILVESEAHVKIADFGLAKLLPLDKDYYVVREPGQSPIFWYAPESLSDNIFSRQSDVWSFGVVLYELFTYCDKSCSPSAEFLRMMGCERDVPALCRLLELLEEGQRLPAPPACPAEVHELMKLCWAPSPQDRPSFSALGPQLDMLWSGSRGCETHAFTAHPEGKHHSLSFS
Method: as §1, §2, §3
as §4, with “time. […]” for “time.”
as §6

JAK1, sequence (P23458 whole entry, species assumed): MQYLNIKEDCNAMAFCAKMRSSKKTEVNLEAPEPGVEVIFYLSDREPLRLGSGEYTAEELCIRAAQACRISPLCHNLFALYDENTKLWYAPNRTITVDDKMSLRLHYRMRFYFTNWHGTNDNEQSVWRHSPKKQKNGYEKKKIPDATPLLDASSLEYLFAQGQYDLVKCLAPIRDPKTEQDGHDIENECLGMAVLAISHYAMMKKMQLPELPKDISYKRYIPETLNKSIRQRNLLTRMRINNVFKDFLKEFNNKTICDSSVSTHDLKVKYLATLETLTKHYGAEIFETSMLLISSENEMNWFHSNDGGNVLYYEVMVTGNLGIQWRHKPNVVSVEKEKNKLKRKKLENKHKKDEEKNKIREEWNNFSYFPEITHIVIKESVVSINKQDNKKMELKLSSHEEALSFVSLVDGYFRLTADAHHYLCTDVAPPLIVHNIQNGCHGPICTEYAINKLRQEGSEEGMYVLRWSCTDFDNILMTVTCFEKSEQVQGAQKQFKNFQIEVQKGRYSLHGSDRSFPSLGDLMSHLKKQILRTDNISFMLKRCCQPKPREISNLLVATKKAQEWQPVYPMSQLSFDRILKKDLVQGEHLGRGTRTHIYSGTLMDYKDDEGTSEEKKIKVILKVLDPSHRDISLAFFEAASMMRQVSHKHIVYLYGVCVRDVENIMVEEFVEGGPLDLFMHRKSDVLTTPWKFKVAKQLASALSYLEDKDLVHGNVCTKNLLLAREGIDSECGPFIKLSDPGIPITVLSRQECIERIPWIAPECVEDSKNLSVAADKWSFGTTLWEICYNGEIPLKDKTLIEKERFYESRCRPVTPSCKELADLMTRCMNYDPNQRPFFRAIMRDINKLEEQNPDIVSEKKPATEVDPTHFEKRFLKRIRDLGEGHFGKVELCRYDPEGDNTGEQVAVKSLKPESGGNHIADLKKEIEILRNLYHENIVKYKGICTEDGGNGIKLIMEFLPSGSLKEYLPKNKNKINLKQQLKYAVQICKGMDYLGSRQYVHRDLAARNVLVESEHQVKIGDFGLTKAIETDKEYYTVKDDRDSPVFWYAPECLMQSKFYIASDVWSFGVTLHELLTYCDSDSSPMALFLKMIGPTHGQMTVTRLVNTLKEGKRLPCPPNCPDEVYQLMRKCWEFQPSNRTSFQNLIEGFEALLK
JAK2, sequence (O60674 whole entry, species assumed): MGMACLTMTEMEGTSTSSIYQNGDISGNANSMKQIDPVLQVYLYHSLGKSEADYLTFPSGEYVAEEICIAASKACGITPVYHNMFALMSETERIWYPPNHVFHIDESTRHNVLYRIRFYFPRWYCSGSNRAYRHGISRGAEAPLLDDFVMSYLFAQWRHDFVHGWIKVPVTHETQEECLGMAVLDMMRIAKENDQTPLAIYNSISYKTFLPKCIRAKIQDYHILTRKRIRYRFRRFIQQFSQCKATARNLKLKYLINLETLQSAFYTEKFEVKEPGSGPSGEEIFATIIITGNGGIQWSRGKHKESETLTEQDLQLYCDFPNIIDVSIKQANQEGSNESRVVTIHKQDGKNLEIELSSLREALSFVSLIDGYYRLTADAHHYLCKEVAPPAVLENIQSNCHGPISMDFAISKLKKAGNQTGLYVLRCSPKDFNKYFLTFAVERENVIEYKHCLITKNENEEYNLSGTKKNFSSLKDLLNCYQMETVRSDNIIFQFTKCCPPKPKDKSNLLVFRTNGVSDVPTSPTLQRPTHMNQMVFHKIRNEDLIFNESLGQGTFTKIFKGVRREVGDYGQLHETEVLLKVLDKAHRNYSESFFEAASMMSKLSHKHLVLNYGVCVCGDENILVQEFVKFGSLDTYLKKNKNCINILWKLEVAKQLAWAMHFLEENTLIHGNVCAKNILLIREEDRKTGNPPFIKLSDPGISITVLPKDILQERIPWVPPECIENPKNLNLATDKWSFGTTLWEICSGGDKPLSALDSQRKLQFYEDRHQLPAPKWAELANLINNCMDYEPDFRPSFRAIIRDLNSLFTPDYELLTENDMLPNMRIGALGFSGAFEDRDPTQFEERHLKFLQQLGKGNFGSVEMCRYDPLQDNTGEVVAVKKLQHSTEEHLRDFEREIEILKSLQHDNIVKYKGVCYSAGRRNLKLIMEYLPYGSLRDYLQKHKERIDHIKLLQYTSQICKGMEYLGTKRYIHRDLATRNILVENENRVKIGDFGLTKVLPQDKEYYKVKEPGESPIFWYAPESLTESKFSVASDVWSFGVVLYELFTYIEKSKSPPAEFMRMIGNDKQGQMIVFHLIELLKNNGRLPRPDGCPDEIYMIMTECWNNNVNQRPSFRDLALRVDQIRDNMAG

Structure (SMILES) | IC50 [1] | IC50 [2] | IC50 [3]
CCS(=O)(=O)N1CC(CC#N)(n2cc(-c3nc(Nc4cnn(CCCc5nn[nH]n5)c4)nc4ccsc34)cn2)C1 [Compound T-61, 2-(3-(4-(2-((1-(3-(2H-Tetrazol-5-yl)propyl)-1H-pyrazol-4-yl)amino)thieno[3,2-d]pyrimidin-4-yl)-1H-pyrazol-1-yl)-1-(ethylsulfonyl)azetidin-3-yl)acetonitrile] | < 50 nM | < 50 nM | < 50 nM
CCS(=O)(=O)N1CC(CC#N)(n2cc(-c3nc(Nc4ccc5[nH]ncc5c4)nc4ccsc34)cn2)C1 [Compound T-57, 2-(3-(4-(2-((1H-Indazol-5-yl)amino)thieno[3,2-d]pyrimidin-4-yl)-1H-pyrazol-1-yl)-1-(ethylsulfonyl)azetidin-3-yl)acetonitrile] | 50 to 500 nM | < 50 nM | 50 to 500 nM
CCS(=O)(=O)N1CC(CC#N)(n2cc(-c3nc(Nc4ccc(-c5nn[nH]n5)cc4)nc4ccsc34)cn2)C1 [Compound T-45, 2-(3-(4-(2-((4-(2H-Tetrazol-5-yl)phenyl)amino)thieno[3,2-d]pyrimidin-4-yl)-1H-pyrazol-1-yl)-1-(ethylsulfonyl)azetidin-3-yl)acetonitrile] | < 50 nM | < 50 nM | 50 to 500 nM
N#CCC1(n2cc(-c3nc(Nc4cnn(CCN5CCOCC5)c4)nc4ccsc34)cn2)CCOCC1 [Compound T-50, 2-(4-(4-(2-((1-(2-Morpholinoethyl)-1H-pyrazol-4-yl)amino)thieno[3,2-d]pyrimidin-4-yl)-1H-pyrazol-1-yl)tetrahydro-2H-pyran-4-yl)acetonitrile] | 500 to 1000 nM | < 50 nM | 500 to 1000 nM
CCS(=O)(=O)N1CC(CC#N)(n2cc(-c3nc(NC(=O)C4CC4)nc4ccsc34)cn2)C1 [Compound T-29, N-(4-(1-(3-(Cyanomethyl)-1-(ethylsulfonyl)azetidin-3-yl)-1H-pyrazol-4-yl)thieno[3,2-d]pyrimidin-2-yl)cyclopropanecarboxamide] | 50 to 500 nM | < 50 nM | > 1000 nM
N#CCC1(n2cc(-c3nc(Nc4ccccc4)nc4ccsc34)cn2)COC1 [Compound T-20, 2-(3-(4-(2-(Phenylamino)thieno[3,2-d]pyrimidin-4-yl)-1H-pyrazol-1-yl)oxetan-3-yl)acetonitrile] | 50 to 500 nM | < 50 nM | 500 to 1000 nM
CCS(=O)(=O)N1CC(CC#N)(n2cc(-c3nc(Nc4ccc(OCCN5CCOCC5)cc4)nc4ccsc34)cn2)C1 [Compound T-08, 2-(1-(Ethylsulfonyl)-3-(4-(2-((4-(2-morpholinoethoxy)phenyl)amino)thieno[3,2-d]pyrimidin-4-yl)-1H-pyrazol-1-yl)azetidin-3-yl)acetonitrile] |  | < 50 nM | 50 to 500 nM
CC(CC#N)n1cc(-c2nc(Nc3ccccc3)nc3ccsc23)cn1 (stereo not shown) [Compound T-02, 3-(4-(2-(Phenylamino)thieno[3,2-d]pyrimidin-4-yl)-1H-pyrazol-1-yl)butanenitrile] |  | 50 to 500 nM | > 1000 nM
CCS(=O)(=O)N1CC(CC#N)(n2cc(-c3nc(NC4CCOCC4)nc4ccsc34)cn2)C1 [Compound T-06, 2-(1-(Ethylsulfonyl)-3-(4-(2-((tetrahydro-2H-pyran-4-yl)amino)thieno[3,2-d]pyrimidin-4-yl)-1H-pyrazol-1-yl)azetidin-3-yl)acetonitrile] |  | > 1000 nM | > 1000 nM
CC(CC#N)n1cc(-c2nc(NCc3ccccc3)nc3ccsc23)cn1 (stereo not shown) [Compound T-01, 3-(4-(2-(Benzylamino)thieno[3,2-d]pyrimidin-4-yl)-1H-pyrazol-1-yl)butanenitrile] |  | > 1000 nM | > 1000 nM
N#CCC(C1CCCC1)n1cc(-c2nc(Nc3ccccc3)nc3ccsc23)cn1 (stereo not shown) [Compound T-03, 3-Cyclopentyl-3-(4-(2-(phenylamino)thieno[3,2-d]pyrimidin-4-yl)-1H-pyrazol-1-yl)propanenitrile] |  | < 50 nM | > 1000 nM
N#CCC(C1CCCC1)n1cc(-c2nc(Nc3cncnc3)nc3ccsc23)cn1 (stereo not shown) [Compound T-04, 3-Cyclopentyl-3-(4-(2-(pyrimidin-5-ylamino)thieno[3,2-d]pyrimidin-4-yl)-1H-pyrazol-1-yl)propanenitrile] |  | < 50 nM | > 1000 nM
CCS(=O)(=O)N1CC(CC#N)(n2cc(-c3nc(NC4CCCCC4)nc4ccsc34)cn2)C1 [Compound T-27, 2-(3-(4-(2-(Cyclohexylamino)thieno[3,2-d]pyrimidin-4-yl)-1H-pyrazol-1-yl)-1-(ethylsulfonyl)azetidin-3-yl)acetonitrile] |  | > 1000 nM | > 1000 nM

Now from value to molecule:

IC50 [1] | IC50 [2] | IC50 [3] | Structure (SMILES)
< 50 nM | < 50 nM | 50 to 500 nM | CCS(=O)(=O)N1CC(CC#N)(n2cc(-c3nc(Nc4cnn(CC(F)(F)F)c4)nc4ccsc34)cn2)C1 [Compound T-69, 2-(1-(Ethylsulfonyl)-3-(4-(2-((1-(2,2,2-trifluoroethyl)-1H-pyrazol-4-yl)amino)thieno[3,2-d]pyrimidin-4-yl)-1H-pyrazol-1-yl)azetidin-3-yl)acetonitrile]
< 50 nM | < 50 nM | 50 to 500 nM | CCS(=O)(=O)N1CC(CC#N)(n2cc(-c3nc(Nc4cnn(C)c4)nc4ccsc34)cn2)C1 [Compound T-15, 2-(1-(Ethylsulfonyl)-3-(4-(2-((1-methyl-1H-pyrazol-4-yl)amino)thieno[3,2-d]pyrimidin-4-yl)-1H-pyrazol-1-yl)azetidin-3-yl)acetonitrile]
< 50 nM | < 50 nM | < 50 nM | CCS(=O)(=O)N1CC(CC#N)(n2cc(-c3nc(Nc4cnn(C(=O)COC)c4)nc4ccsc34)cn2)C1 [Compound T-32, 2-(1-(Ethylsulfonyl)-3-(4-(2-((1-(2-methoxyacetyl)-1H-pyrazol-4-yl)amino)thieno[3,2-d]pyrimidin-4-yl)-1H-pyrazol-1-yl)azetidin-3-yl)acetonitrile]
< 50 nM | < 50 nM | 50 to 500 nM | CCS(=O)(=O)N1CC(CC#N)(n2cc(-c3nc(Nc4cnn(C5CNC5)c4)nc4ccsc34)cn2)C1 [Compound T-65, 2-(3-(4-(2-((1-(Azetidin-3-yl)-1H-pyrazol-4-yl)amino)thieno[3,2-d]pyrimidin-4-yl)-1H-pyrazol-1-yl)-1-(ethylsulfonyl)azetidin-3-yl)acetonitrile]
< 50 nM | < 50 nM | 50 to 500 nM | CCS(=O)(=O)N1CC(CC#N)(n2cc(-c3nc(Nc4cnn(CC(=O)O)c4)nc4ccsc34)cn2)C1 [Compound T-33, 2-(4-((4-(1-(3-(Cyanomethyl)-1-(ethylsulfonyl)azetidin-3-yl)-1H-pyrazol-4-yl)thieno[3,2-d]pyrimidin-2-yl)amino)-1H-pyrazol-1-yl)acetic acid]
 | < 50 nM | > 1000 nM | CCS(=O)(=O)N1CC(CC#N)(n2cc(-c3nc(Nc4ccc(F)cc4)nc4ccsc34)cn2)C1 [Compound T-24, 2-(1-(Ethylsulfonyl)-3-(4-(2-((4-fluorophenyl)amino)thieno[3,2-d]pyrimidin-4-yl)-1H-pyrazol-1-yl)azetidin-3-yl)acetonitrile]
